This note sets out measurements from ChEMBL document CHEMBL1142844, “A chemical strategy to promote helical peptide-protein interactions involved in apoptosis” (Bioorg Med Chem Lett, 2005).

This experiment deals with Apoptosis regulator Bcl-2 (Homo sapiens, UniProt P10415). The experiment is described as follows: Inhibition of BCL2 by fluorescence polarization based competitive binding assay. On the technique in general: Fluorescence polarisation rises when a labelled molecule tumbles more slowly, as on binding a larger partner.
Sequence of Apoptosis regulator Bcl-2 (P10415 whole entry): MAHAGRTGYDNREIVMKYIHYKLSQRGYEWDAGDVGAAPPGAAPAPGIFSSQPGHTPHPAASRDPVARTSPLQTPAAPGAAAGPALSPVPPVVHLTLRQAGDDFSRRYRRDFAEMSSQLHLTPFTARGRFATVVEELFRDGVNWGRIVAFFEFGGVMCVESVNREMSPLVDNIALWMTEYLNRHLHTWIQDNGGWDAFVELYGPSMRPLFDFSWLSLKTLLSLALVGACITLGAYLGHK

One may read the IC50 as the concentration needed to halve the response being measured. Regarding `CC[C@H](C)[C@H](NC(=O)[C@H](CC(N)=O)NC(=O)[C@H](CCCN=C(N)N)NC(=O)[C@@H](NC(=O)[C@@H](NC(=O)[C@H](CC(=O)O)NC(=O)[C@H](CCC(=O)O)NC(=O)[C@@H](N)CCC(N)=O)[C@@H](C)CC)[C@@H](C)CC)C(=O)N[C@@H](C)C(=O)N[C@@H](CCCN=C(N)N)C(=O)N[C@@H](Cc1c[nH]cn1)C(=O)N[C@@H](CC(C)C)C(=O)N[C@@H](C)C(=O)N[C@@H](CCC(N)=O)C(=O)N[C@H](C(=O)NCC(=O)N[C@@H](CC(=O)O)C(=O)N[C@@H](CO)C(=O)N[C@@H](CCSC)C(=O)N[C@@H](CC(=O)O)C(=O)N[C@@H](CCCN=C(N)N)C(=O)N[C@@H](CO)C(=O)N[C@H](C(=O)N1CCC[C@H]1C(=O)N1CCC[C@H]1C(=O)NCC(=O)O)[C@@H](C)CC)C(C)C`, the IC50 (read-out: IC50) was 14.1 µM.
On to H-KKLSECLKRIGDELDS-OH, for which the IC50 (read-out: IC50) turned out to be 29.1 µM.
Turning to H-NLAAAQRYGRELRRMSDEFEGSFKGL-OH, the IC50 (read-out: IC50) turned out to be 0.41 µM.
In the case of H-NLWAAGQVGRQLAIIGDDINRSFKGL-OH, for the setting “read-out: IC50”, the half-inhibitory concentration (IC50) came to 0.65 µM.
Turning to H-NLWAAKKLSECLKRIGDELDSSFKGL-OH, the IC50 (read-out: IC50) was found to be 1.33 µM.
Same read-out and setting: in the case of H-NLWAAQRYGRELRRMSDEFEG-OH it was 5.6 µM.
On the same count and under the same terms, under H-NLWAAQRYGRELRRMSDEFEGAFKGL-OH stands 0.8 µM.
As to H-NLWAAQRYGRELRRMSDEFEGSAKGL-OH, the IC50 (read-out: IC50) amounted to 1.36 µM.
On the same count and under the same terms, under H-NLWAAQRYGRELRRMSDEFEGSFKGL-OH stands 0.3 µM.
The same measure, in the same setting: under H-NLWAARNIARHLAQVGDSMDRSFKGL-OH stands 1.56 µM; under H-NRWAAQRYGRELRRMSDEFEGSFKGL-OH, 0.49 µM; under H-PSSTMGQVGRQLAIIGDDINRRYDSE-OH, 3.03 µM.
Same read-out and setting: under H-QDASTKKLSECLKRIGDELDSNMELQ-OH stands 2.88 µM.
Consider H-QRYGRELRRMSDEFEG-OH, for which the IC50 result was “Not Active”.
On to H-QRYGRELRRMSDEFEGSFKGL-OH, for which, under “read-out: IC50”, the IC50 came to 17.5 µM.
For the compound H-RNIARHLAQVGDSMDR-OH, the IC50 (read-out: IC50) was determined as 22.3 µM.
